The series has as its target Cytochrome P450 1A2 (Homo sapiens) (UniProt P05177). The series can be described thus: CYP1A2 enzyme inhibition, late-stage follow-up, biochemical (AID 652076). As to conditions: Human CYP inhibition panel, LC-MS/MS marker substrate metabolism.

The source made the active and inactive calls. No rule for the calls is given here.

The term inhibition denotes the change of the read-out against control, counted positive when it falls.

Sequence of Cytochrome P450 1A2 (Homo sapiens) (P05177 whole entry, looked up): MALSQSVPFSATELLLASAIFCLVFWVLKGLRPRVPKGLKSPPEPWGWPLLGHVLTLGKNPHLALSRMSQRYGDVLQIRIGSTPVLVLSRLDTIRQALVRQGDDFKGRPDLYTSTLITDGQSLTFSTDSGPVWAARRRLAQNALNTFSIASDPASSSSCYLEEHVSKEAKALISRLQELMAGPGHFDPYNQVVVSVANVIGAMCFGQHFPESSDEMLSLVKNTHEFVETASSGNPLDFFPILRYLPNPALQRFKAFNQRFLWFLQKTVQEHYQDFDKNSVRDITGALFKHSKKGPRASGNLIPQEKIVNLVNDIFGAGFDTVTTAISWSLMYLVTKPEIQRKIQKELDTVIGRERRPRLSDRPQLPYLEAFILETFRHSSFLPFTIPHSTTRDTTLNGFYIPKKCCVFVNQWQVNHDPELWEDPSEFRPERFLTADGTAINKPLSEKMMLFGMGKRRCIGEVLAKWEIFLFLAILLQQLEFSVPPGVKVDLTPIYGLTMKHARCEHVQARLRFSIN

As to `COC(=O)c1cc(Br)cnc1N1CCC(NC2CCCCC2)C(O)C1` (configuration not stated), the result was active. The inhibition (CYP1A2, at 10 µM, active compounds read high) is -9%.
